System: Male hamsters (Slc:Syrian)
Assay: Effect on LDL-C of hamster, oral administration once per day for two weeks
Type: in vivo
Details: single administration, vs control (Dunnett)
From the text: Male hamsters (6-week-old, Slc:Syrian, Japan SLC, Inc.) were used for an experiment. Blood was collected from the jugular vein under satiation. The hamsters were divided into six groups (N=8) based on TG and TC in plasma and a body weight. For two weeks from the next day, each of a solvent (0.5% methylcellulose aqueous solution: MC), compound A alone, compound B alone, and combination of compound A and compound B was orally administered once per day. For comparison, for two weeks, each of compound C alone and combination of compound A and compound C was orally administered once per day. On the final day of administration of the pharmaceutical agent, blood was collected under fasting conditions for four hours and under isoflurane anesthesia, and LDL-C in plasma was measured using high performance liquid chromatography by a method of Usui et • a1. (Usui S et al. Clin Chem., 46, 63-72, 2000).
Group 2: 0.3 mg/kg of compound A
Group 3: 10 mg/kg of compound B
Group 4: 0.3 mg/kg of compound A and 10 mg/kg of compound B
Group 5: 10 mg/kg of compound C
Group 6: 0.3 mg/kg of compound A and 10 mg/kg of compound C
Results were presented by an average value±standard deviation. Comparison between the control group and each of the pharmaceutical agent administration groups was performed by a multiple comparison test of Dunnett, and a risk rate of less than 5% was determined to have a significant difference.

[1] = 10 mg/kg orally once per day for two weeks

CC[C@@H](Oc1cccc(CN(CCCOc2ccc(OC)cc2)c2nc3ccccc3o2)c1)C(=O)O [compound A, (R)-2-[3-[[N-(benzoxazol-2-yl)-N-3-(4-methoxyphenoxy)propyl]aminomethyl]phenoxy]butyric acid]
LDL-C in plasma (0.3 mg/kg orally once per day for two weeks): a clear influence on LDL-C was not observed

CCN(C[C@H]1CC[C@H](CC(=O)O)CC1)c1ccc(C(F)(F)F)cc1CN(c1ncc(OCCS(C)(=O)=O)cn1)[C@@H](C)c1cc(C(F)(F)F)cc(C(F)(F)F)c1 [compound B, (S)-trans-{4-[({2-[({1-[3,5-bis(trifluoromethyl)phenyl]ethyl}{5-[2-(methylsulfonyl)ethoxy]pyrimidin-2-yl}amino)methyl]-4-(trifluoromethyl)phenyl}(ethyl)amino)methyl]cyclohexyl} acetic acid]
LDL-C in plasma [1]: a clear influence on LDL-C was not observed

COc1cc(F)c(C(C)C)cc1-c1ccc(C(F)(F)F)cc1CN1C(=O)O[C@H](c2cc(C(F)(F)F)cc(C(F)(F)F)c2)[C@@H]1C [compound C, [4S,5R]-5-[3,5-bis(trifluoromethyl)phenyl]-3-{[4′-fluoro-2′-methoxy-5′-(propan-2-yl)-4-(trifluoromethyl)[1,1′-biphenyl]-2-yl]methyl}-4-methyl-1,3-oxazolidin-2-one, reference compound]
LDL-C in plasma [1]: a clear influence on LDL-C was not observed

From patent US9968592B2, “Dyslipidemia therapeutic agent” (KOWA COMPANY, LTD., priority 2014, dated 2018)
